# Measured values as given in patent US9914730B2, “Azaquinazoline inhibitors of Atypical protein Kinase C” (Ignyta, Inc., priority 2012, dated 2018).
# Target: T1, full-length human PKCι (Homo sapiens, UniProt P41743)
# T1 construct: Recombinant, full-length human PKCι expressed in Sf21 insect cells is also commercially available; purchased; host or cells: Sf21 insect cells
# T1 sequence (P41743 1-596): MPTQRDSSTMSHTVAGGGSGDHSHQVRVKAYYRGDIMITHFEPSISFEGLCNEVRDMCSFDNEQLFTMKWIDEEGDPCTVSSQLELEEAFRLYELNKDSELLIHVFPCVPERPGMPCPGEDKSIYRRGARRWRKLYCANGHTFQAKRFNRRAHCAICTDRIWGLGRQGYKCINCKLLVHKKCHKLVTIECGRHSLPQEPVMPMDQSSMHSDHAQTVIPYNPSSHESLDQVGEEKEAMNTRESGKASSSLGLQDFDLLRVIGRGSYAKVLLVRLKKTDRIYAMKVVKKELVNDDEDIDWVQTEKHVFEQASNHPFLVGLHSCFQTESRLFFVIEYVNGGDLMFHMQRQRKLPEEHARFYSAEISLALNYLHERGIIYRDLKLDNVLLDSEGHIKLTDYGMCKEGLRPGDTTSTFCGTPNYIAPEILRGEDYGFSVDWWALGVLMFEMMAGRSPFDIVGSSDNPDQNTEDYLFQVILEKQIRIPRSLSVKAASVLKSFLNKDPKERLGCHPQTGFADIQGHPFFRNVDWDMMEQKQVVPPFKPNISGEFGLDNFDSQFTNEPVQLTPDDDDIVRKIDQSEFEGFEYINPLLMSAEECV
# Assay: PKCι IC50 IMAP assay, full-length PKCι at 150 μM ATP
# Assay type: biochemical
# Settings: read-out: IC50 in IMAP assay against full length PKCi at 150 μM ATP
# Method in brief: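 IC50 from IMAP FP (ex 485/em 530 nm) after 60 min room-temperature reaction in pH 7.5 tris buffer with 9 mM MgCl2 and 0.9 mM DTT. Enzyme: full-length Sf21-expressed PKCι (~15 pM); ATP 150 μM, five times KM^APP; FAM-labelled peptide 100 nM; DMSO 4%.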
row,IC50,SMILES
1,< 100 nM,"Fc1cccc(F)c1Nc1cc(-c2nc(NC3CCCNC3)c3c(C4CC4)cncc3n2)ccn1 (stereo not drawn) [Example 842, {5-Cyclopropyl-2-[2-(2,6-difluoro-phenylamino)-pyridin-4-yl]-pyrido[3,4-d]pyrimidin-4-yl}-piperidin-3-yl-amine]"
2,< 100 nM,"C[C@@H]1CN(c2nc(-c3ccnc(Nc4c(F)cccc4F)c3)nc3cncc(C4CC4)c23)C[C@H](C)N1 [Example 843, {4-[5-Cyclopropyl-4-((3R,5S)-3,5-dimethyl-piperazin-1-yl)-pyrido[3,4-d]pyrimidin-2-yl]-pyridin-2-yl}-(2,6-difluoro-phenyl)-amine]"
3,< 100 nM,"NC(=O)c1ccc(Nc2cc(-c3nc(N4CCNCC4)c4c(C5CC5)cncc4n3)ccn2)nc1 [Example 844, 6-[4-(5-Cyclopropyl-4-piperazin-1-yl-pyrido[3,4-d]pyrimidin-2-yl)-pyridin-2-ylamino]-nicotinamide]"
4,< 100 nM,"CC1(C)CN(c2nc(-c3ccnc(Nc4nc(F)cc(F)c4F)c3)nc3cncc(C4CC4)c23)CCN1 [Example 845, {4-[5-Cyclopropyl-4-(3,3-dimethyl-piperazin-1-yl)-pyrido[3,4-d]pyrimidin-2-yl]-pyridin-2-yl}-(3,4,6-trifluoro-pyridin-2-yl)-amine]"
5,< 100 nM,"c1cc(C2CC2)c2nc(Nc3cc(-c4nc(N5CCNCC5)c5c(C6CC6)cncc5n4)ccn3)nn2c1 [Example 846, [4-(5-Cyclopropyl-4-piperazin-1-yl-pyrido[3,4-d]pyrimidin-2-yl)-pyridin-2-yl]-(8-cyclopropyl-[1,2,4]triazolo[1,5-a]pyridin-2-yl)-amine]"
6,1000 to 10000 nM,"c1ccc(C[C@H]2CN(c3nc(N4CCOCC4)nc4cnccc34)CCN2)cc1 [Example 1000, 4-((S)-3-Benzyl-piperazin-1-yl)-2-morpholin-4-yl-pyrido[3,4-d]pyrimidine]"
7,1000 to 10000 nM,"c1ccc(CC2CN(c3nc(N[C@@H]4CCNC4)c4ccncc4n3)CCO2)cc1 (stereo partly drawn) [Example 1001, [2-(2-Benzyl-morpholin-4-yl)-pyrido[3,4-d]pyrimidin-4-yl]-(R)-pyrrolidin-3-yl-amine]"
8,< 100 nM,"COc1cncc2nc(N3CCOCC3)nc(NC[C@@H](N)Cc3ccccc3)c12 [Example 1002, (S)-N^1-(5-Methoxy-2-morpholin-4-yl-pyrido[3,4-d]pyrimidin-4-yl)-3-phenyl-propane-1,2-diamine]"
9,100 to 1000 nM,"COc1cncc2nc(N3CCOCC3)nc(N3CCNCC3)c12 [Example 1003, 5-Methoxy-2-morpholin-4-yl-4-piperazin-1-yl-pyrido[3,4-d]pyrimidine]"
10,1000 to 10000 nM,"COc1cncc2nc(N3CCOC(COc4ccccc4)C3)nc(N3CCNCC3)c12 (stereo not drawn) [Example 1004, 5-Methoxy-2-(2-phenoxymethyl-morpholin-4-yl)-4-piperazin-1-yl-pyrido[3,4-d]pyrimidine]"
11,100 to 1000 nM,"COc1cncc2nc(N3CCOCC3)nc(N3CCN[C@@H](CO)C3)c12 [Example 1005, [(R)-4-(5-Methoxy-2-morpholin-4-yl-pyrido[3,4-d]pyrimidin-4-yl)-piperazin-2-yl]-methanol]"
12,100 to 1000 nM,"COc1cncc2nc(N3CCOCC3)nc(N3CCN[C@@H](COc4ccccc4)C3)c12 [Example 1006, 5-Methoxy-2-morpholin-4-yl-4-((R)-3-phenoxymethyl-piperazin-1-yl)-pyrido[3,4-d]pyrimidine]"
13,1000 to 10000 nM,"COc1cncc2nc(N3CCOCC3)nc(N3CCC[C@H](Nc4ccccc4)C3)c12 [Example 1007, [(S)-1-(5-Methoxy-2-morpholin-4-yl-pyrido[3,4-d]pyrimidin-4-yl)-piperidin-3-yl]-phenyl-amine]"
14,100 to 1000 nM,"COc1cncc2nc(N3CCOCC3)nc(N3CCN[C@@H](COc4ccccc4F)C3)c12 [Example 1008, 4-[(R)-3-(2-Fluoro-phenoxymethyl)-piperazin-1-yl]-5-methoxy-2-morpholin-4-yl-pyrido[3,4-d]pyrimidine]"
15,1000 to 10000 nM,"COC[C@H]1CN(c2nc(N3CCOCC3)nc3cncc(OC)c23)CCN1 [Example 1009, 5-Methoxy-4-((R)-3-methoxymethyl-piperazin-1-yl)-2-morpholin-4-yl-pyrido[3,4-d]pyrimidine]"

# The next lines start with the molecule.
row,SMILES,IC50
1,"FC(F)(F)c1ccc(Nc2cc(-c3nc(N4CCNCC4)c4c(C5CC5)cncc4n3)ccn2)nc1 [Example 827, [4-(5-Cyclopropyl-4-piperazin-1-yl-pyrido[3,4-d]pyrimidin-2-yl)-pyridin-2-yl]-(5-trifluoromethyl-pyridin-2-yl)-amine]",< 100 nM
2,"C[C@@H]1CN(c2nc(-c3ccnc(Nc4nc(F)c(F)cc4F)c3)nc3cncc(C4CC4)c23)C[C@H](C)N1 [Example 828, {4-[5-Cyclopropyl-4-((3R,5S)-3,5-dimethyl-piperazin-1-yl)-pyrido[3,4-d]pyrimidin-2-yl]-pyridin-2-yl}-(3,5,6-trifluoro-pyridin-2-yl)-amine]",< 100 nM
3,"Fc1cccc(F)c1Nc1cc(-c2nc(N3CCNC4(CC4)C3)c3c(C4CC4)cncc3n2)ccn1 [Example 829, {4-[5-Cyclopropyl-4-(4,7-diaza-spiro[2.5]oct-7-yl)-pyrido[3,4-d]pyrimidin-2-yl]-pyridin-2-yl}-(2,6-difluoro-phenyl)-amine]",< 100 nM
4,"C[C@H]1CN(c2nc(-c3ccnc(Nc4nc(F)c(F)cc4F)c3)nc3cncc(C4CC4)c23)CCN1 [Example 830, {4-[5-Cyclopropyl-4-((S)-3-methyl-piperazin-1-yl)-pyrido[3,4-d]pyrimidin-2-yl]-pyridin-2-yl}-(3,5,6-trifluoro-pyridin-2-yl)-amine]",1000 to 10000 nM
5,"c1cc(-c2nc(N3CCNCC3)c3c(C4CC4)cncc3n2)cc(Nc2nc3cc(C4CC4)ccn3n2)n1 [Example 831, [4-(5-Cyclopropyl-4-piperazin-1-yl-pyrido[3,4-d]pyrimidin-2-yl)-pyridin-2-yl]-(7-cyclopropyl-[1,2,4]triazolo[1,5-a]pyridin-2-yl)-amine]",< 100 nM
6,"Cn1ccc(Nc2cc(-c3nc(N4CCNC(C)(C)C4)c4c(C5CC5)cncc4n3)ccn2)n1 [Example 832, {4-[5-Cyclopropyl-4-(3,3-dimethyl-piperazin-1-yl)-pyrido[3,4-d]pyrimidin-2-yl]-pyridin-2-yl}-(1-methyl-1H-pyrazol-3-yl)-amine]",< 100 nM
7,"CN(c1nc(-c2ccnc(Nc3c(F)cccc3F)c2)nc2cncc(C3CC3)c12)C1CCNCC1 [Example 833, {5-Cyclopropyl-2-[2-(2,6-difluoro-phenylamino)-pyridin-4-yl]-pyrido[3,4-d]pyrimidin-4-yl}-methyl-piperidin-4-yl-amine]",< 100 nM
8,"OC1CCN(c2nc(-c3ccnc(Nc4cccc(N5CCOCC5)c4)c3)nc3cncc(C4CC4)c23)CC1 [Example 834, 1-{5-Cyclopropyl-2-[2-(3-morpholin-4-yl-phenylamino)-pyridin-4-yl]-pyrido[3,4-d]pyrimidin-4-yl}-piperidin-4-ol]",< 100 nM
9,"C[C@@H](Nc1cc(-c2nc(N3CCNC(C)(C)C3)c3c(C4CC4)cncc3n2)ccn1)C1CCCCC1 [Example 835, ((R)-1-Cyclohexyl-ethyl)-{4-[5-cyclopropyl-4-(3,3-dimethyl-piperazin-1-yl)-pyrido[3,4-d]pyrimidin-2-yl]-pyridin-2-yl}-amine]",< 100 nM
10,"Fc1cc(F)nc(Nc2cc(-c3nc(N4CCNCC4)c4c(C5CC5)cncc4n3)ccn2)c1 [Example 836, [4-(5-Cyclopropyl-4-piperazin-1-yl-pyrido[3,4-d]pyrimidin-2-yl)-pyridin-2-yl]-(4,6-difluoro-pyridin-2-yl)-amine]",< 100 nM
11,"Fc1cccc(F)c1Nc1cc(-c2nc(NC3CCNC3)c3c(C4CC4)cncc3n2)ccn1 (stereo not drawn) [Example 837, {5-Cyclopropyl-2-[2-(2,6-difluoro-phenylamino)-pyridin-4-yl]-pyrido[3,4-d]pyrimidin-4-yl}-pyrrolidin-3-yl-amine]",< 100 nM
12,"CC1(C)CN(c2nc(-c3ccnc(Nc4nc(F)ccc4F)c3)nc3cncc(C4CC4)c23)CCN1 [Example 838, {4-[5-Cyclopropyl-4-(3,3-dimethyl-piperazin-1-yl)-pyrido[3,4-d]pyrimidin-2-yl]-pyridin-2-yl}-(3,6-difluoro-pyridin-2-yl)-amine]",< 100 nM
13,"C[C@H]1CN(c2nc(-c3ccnc(Nc4ccc(C(F)(F)F)cn4)c3)nc3cncc(C4CC4)c23)CCN1 [Example 839, {4-[5-Cyclopropyl-4-((S)-3-methyl-piperazin-1-yl)-pyrido[3,4-d]pyrimidin-2-yl]-pyridin-2-yl}-(5-trifluoromethyl-pyridin-2-yl)-amine]",< 100 nM
14,"CC1(C)CN(c2nc(-c3ccnc(Nc4ncccc4F)c3)nc3cncc(C4CC4)c23)CCN1 [Example 840, {4-[5-Cyclopropyl-4-(3,3-dimethyl-piperazin-1-yl)-pyrido[3,4-d]pyrimidin-2-yl]-pyridin-2-yl}-(3-fluoro-pyridin-2-yl)-amine]",< 100 nM
15,"CNC(=O)c1ccc(Nc2cc(-c3nc(N4CCNCC4)c4c(C5CC5)cncc4n3)ccn2)cc1 [Example 841, -[4-(5-Cyclopropyl-4-piperazin-1-yl-pyrido[3,4-d]pyrimidin-2-yl)-pyridin-2-ylamino]-N-methyl-benzamide]",< 100 nM
